# PubChem BioAssay AID2060904 (Molecular Pharmacology Branch, DTP, NCI, 2025)
# System: 349418-098-R-PDC complex spheroid viability
# Experiment: Anticancer human tumor 349418-098-R-PDC patient-derived lung adenocarcinoma cell line growth inhibition [RAS]
# Details: for IC50: curve of first compound; for viability, T/C: stronger effect = lower value
# Text: RAS pathway inhibitors in Combinations in Complex Spheroids
# A high-throughput screen of multi-cell type tumor spheroids was designed to identify active combinations of RAS pathway inhibitors and targeted small molecules. Complex spheroids include a stromal component modeled by human endothelial cells (HUVEC) and fibroblasts modeled by human mesenchymal stem cells (MSCs). The concentration ranges selected for each drug and investigational agent were based upon clinically achievable concentrations if the clinical Cmax of the agent was known.
# Compounds. The drugs and investigational agents: abemaciclib (NSC768073), cobimetinib (NSC768068), divarasib (GDC6063, NSC841802), docetaxel (NSC628503), GDC-1971 (RLY-1971, NSC841576), gemcitabine (NSC613327), inavolisib (NSC800729), ipatasertib (NSC767898), KB-0742 (NSC834161), MRTX-1133 (NSC836407), osimertinib (NSC779217), RMC-4630 (NSC839698), RMC-6236 (NSC851965), RMC-6291 (NSC852671), Ro-3306 (NSC812927), sapanisertib (NSC764658), SN-38 (NSC673596), staurosporine (NSC755774), SY5609 (NSC837396), and tovorafenib (DAY101, NSC766906), were obtained from the National Cancer Institute (NCI) Developmental Therapeutics Program Chemical Repository. The FDA-approved anticancer drug set is available from the NCI Developmental Therapeutics Program. […] The stock solutions were prepared in dimethyl sulfoxide (DMSO, Sigma-Aldrich, St. Louis, MO, cat. D2650) at 800-fold the tested concentration and stored at -70 degrees C prior to their use. All drugs and investigational agents were tested over a range starting from a high concentration at or near the clinical Cmax and decreasing in half-log increments. If the clinical Cmax for an agent had not been determined, the highest concentration tested was 10 microM.
# Cell Culture. All cells were maintained in an incubator at 37 degrees C and 5% CO2 with 95% humidity. The PDC lines were cultured according to standard operating procedures established by the NCI PDMR. All PDCs were thawed and cultured in Matrigel-coated flasks prepared with a working solution of 1X Ham's F-12 nutrient mix, without supplementation (Invitrogen, Waltham, MA, cat. 11765054), 100 U/mL penicillin-streptomycin (Invitrogen, cat. 15140122), and 2.5% Matrigel (Corning Inc., Corning, NY, cat. 354248) for the first three passages. The 362531-283-R-J2-PDC and 782815-120-R-J1-PDC lines were cultured in 6C/Colon 1B media, which includes advanced DMEM/F-12 (Thermo Fisher Scientific, cat. 12634028), 10 mM HEPES (Thermo Fisher Scientific, cat. 15630080), 1X GlutaMAX supplement (Thermo Fisher Scientific, cat. 35050061), 0.1 mg/mL primocin (InvivoGen, San Diego, CA, cat. ant-pm-2), 10% defined fetal bovine serum, heat inactivated (HyClone Laboratories Inc., Logan, UT, cat. SH30070.03HI), 50% L-WRN conditioned media (ATCC, cat. CRL-3276), 1.25 mM N-Acetyl-L-cysteine (Sigma-Aldrich, cat. A9165), 10 mM nicotinamide (Sigma-Aldrich, cat. N0636), 1X B-27 supplement (Thermo Fisher Scientific, cat. 17504044), 1X N-2 supplement (Thermo Fisher Scientific, cat. 17502048), 50 ng/mL human EGF (Thermo Fisher Scientific, cat. PHG0311), and 10 microM Y-27632 dihydrochloride (Tocris Bioscience, cat. 1254). The K12877-001-R-J1-PDC line was cultured in 6I media, which includes all 6C/Colon 1B media plus 10 ng/mL human FGF-10 (PeproTech, cat. 100-26), 1 ng/mL human FGF-2 (PeproTech, cat. 100-18B), 1 µM prostaglandin E2 (Tocris Bioscience, cat. 2296), […] hydrocortisone (Sigma-Aldrich, cat. H4001), and […] bovine insulin (Sigma-Aldrich, cat. I6634). The K86415-001-R-J1-PDC line was cultured in 6D media, which includes all 6C/Colon 1B media components minus the L-WRN conditioned media. The 485176-168-R4-J1-PDC was cultured in PANC media, which includes all 6C/Colon 1B media plus 100 ng/mL human FGF-10 (PeproTech, cat. 100-26), 500 nM SB-431542 (Selleckchem, cat. S1067), and 10 nM gastrin (Tocris Bioscience, cat. 3006). […]
# 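Further: spheroids exposed to compound for seven days before viability readout.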
compound,measurement,setting,value
O=C(c1ccc(F)c(F)c1Nc1ccc(I)cc1F)N1CC(O)([C@@H]2CCCCN2)C1 + C#Cc1c(F)ccc2cc(O)cc(-c3ncc4c(N5CC6CCC(C5)N6)nc(OCC56CCCN5CC(F)C6)nc4c3F)c12,IC50,second compound 0.0316 µM,< 3.16 nM
same,IC50,second compound 0.1 µM,< 3.16 nM
same,IC50,second compound 0.316 µM,< 3.16 nM
same,IC50,second compound 1 µM,< 3.16 nM
same,IC50,second compound 3.16 µM,< 3.16 nM
same,IC50,second compound 10 µM,< 3.16 nM
same,"viability, T/C","second compound 0.0316 µM, first compound 0.00316 µM",47.9%
same,"viability, T/C","second compound 0.0316 µM, first compound 0.01 µM",37.5%
same,"viability, T/C","second compound 0.0316 µM, first compound 0.0316 µM",36.9%
same,"viability, T/C","second compound 0.0316 µM, first compound 0.1 µM",15.6%
same,"viability, T/C","second compound 0.0316 µM, first compound 0.316 µM",7.05%
same,"viability, T/C","second compound 0.0316 µM, first compound 1 µM",5.82%
same,"viability, T/C","second compound 0.1 µM, first compound 0.00316 µM",44.8%
same,"viability, T/C","second compound 0.1 µM, first compound 0.01 µM",39.8%
same,"viability, T/C","second compound 0.1 µM, first compound 0.0316 µM",29.3%
same,"viability, T/C","second compound 0.1 µM, first compound 0.1 µM",14.2%
same,"viability, T/C","second compound 0.1 µM, first compound 0.316 µM",7.41%
same,"viability, T/C","second compound 0.1 µM, first compound 1 µM",4.83%
same,"viability, T/C","second compound 0.316 µM, first compound 0.00316 µM",46%
same,"viability, T/C","second compound 0.316 µM, first compound 0.01 µM",32.6%
same,"viability, T/C","second compound 0.316 µM, first compound 0.0316 µM",24.1%
same,"viability, T/C","second compound 0.316 µM, first compound 0.1 µM",13.3%
same,"viability, T/C","second compound 0.316 µM, first compound 0.316 µM",5.32%
same,"viability, T/C","second compound 0.316 µM, first compound 1 µM",5.62%
same,"viability, T/C","second compound 1 µM, first compound 0.00316 µM",38.6%
same,"viability, T/C","second compound 1 µM, first compound 0.01 µM",31.1%
same,"viability, T/C","second compound 1 µM, first compound 0.0316 µM",21.9%
same,"viability, T/C","second compound 1 µM, first compound 0.1 µM",10.9%
same,"viability, T/C","second compound 1 µM, first compound 0.316 µM",5.57%
same,"viability, T/C","second compound 1 µM, first compound 1 µM",4.89%
same,"viability, T/C","second compound 3.16 µM, first compound 0.00316 µM",36.8%
same,"viability, T/C","second compound 3.16 µM, first compound 0.01 µM",22.8%
same,"viability, T/C","second compound 3.16 µM, first compound 0.0316 µM",16%
same,"viability, T/C","second compound 3.16 µM, first compound 0.1 µM",8.92%
same,"viability, T/C","second compound 3.16 µM, first compound 0.316 µM",6.05%
same,"viability, T/C","second compound 3.16 µM, first compound 1 µM",4.36%
same,"viability, T/C","second compound 10 µM, first compound 0.00316 µM",16.8%
same,"viability, T/C","second compound 10 µM, first compound 0.01 µM",7.65%
same,"viability, T/C","second compound 10 µM, first compound 0.0316 µM",3.23%
same,"viability, T/C","second compound 10 µM, first compound 0.1 µM",4.71%
same,"viability, T/C","second compound 10 µM, first compound 0.316 µM",2.14%
same,"viability, T/C","second compound 10 µM, first compound 1 µM",0.87%
